# What was measured:
# Format in all cases: cell-based
# Escherichia coli = assay: USP Antimicrobial Effectiveness Test (AET) of MSM supplemented TSB; parameters: key: Colonies too numerous to count (TNTC); conditions: 48 hrs
# From the text: (§1) Compounds or formulated products having antimicrobial activity may be evaluated with the United States Pharmacopeia (USP) Antimicrobial Effectiveness Test (AET). The AET involves the addition of specified microorganisms (Candida albicans, Aspergillus niger, Escherichia coli, Pseudomonas aeruginosa and Staphylococcus aureus) directly to a test product at relatively high concentrations to simulate contamination. The product is held for one month, with weekly analysis of microorganism levels. […] For yeast and mold, no increase from the initial inoculums level is permitted. […] Inoculations were made using Candida albicans, Aspergillus niger, Escherichia coli, Pseudomonas aeruginosa and Staphylococcus aureus. Tryptic soy broth (TSB) was used as the culturing media. […] The inoculated media was held for one month, during which time the added microorganisms were enumerated weekly to determine if they were growing, dying off, or remaining near the initial inoculation level. […] The acceptance criteria for antimicrobial effectiveness are described in detail in the USP, herein incorporated by reference.
# Pseudomonas aeruginosa = assay: as above; parameters: key: Colonies too numerous to count (TNTC); conditions: 48 hrs
# From the text: as §1
# Lactobacillus rhamnosus = assay: Growth of Lactobacillus rhamnosus in MRS broth fortified with MSM; conditions: for Growth (colony forming units): 0.04% MSM in MRS broth, 0-72 hours
# Experimental: (§2) Each organism (Lactobacillus rhamnosus, Lactobacillus acidophilus, and Bifidobacterium bifidum) was grown in MRS bacterial growth medium (broth) and plated on MRS agar at different time intervals. Results are expressed in colony forming units per milliliter (cfu/mL). […] All bacterial organisms were incubated at 35° C. +/−2° C. for the duration of the study. […] All preparations and plating were conducted at room temperature. […] Test samples were plated in triplicate at each test date and the averages are reported.
# Bifidobacterium bifidum = assay: Growth of Bifidobacterium bifidum in MRS broth fortified with MSM (anaerobic)
# Experimental: as §2, with “reported. Bifidobacterium bifidum, a common microbe used in probiotics, was also tested. All Bifidobacterium samples were incubated under anaerobic conditions.” for “reported.”
# [1] = tested on: White Labs Edinburgh Ale yeast; assay: Fermentation efficiency in production of beer (Scotch Ale) with 0.5% MSM; conditions: for F.G. (Adjusted for Alc and Temp): 0.5% MSM fermentor
# From the text: This positive impact includes such organisms as fungi, yeast, and bacteria. Yeast cultures are involved in the production of beer during the fermentation process to produce ethanol and carbon dioxide. […] Wort is the liquid extracted from the mashing process during the brewing of beer or whisky. Wort contains the sugars that are fermented by the brewing yeast to produce alcohol. […] This Procedure is detailed below. […] (1) glass jugs, airlocks and funnel were thoroughly cleaned and then rinsed with beer sanitizer; (2) 1000 mLs of water was boiled then 100 grams of DME was added; (3) sample was boiled for 10 minutes; […] The Treatment Starter batch was then placed in a sanitized 64 ounce glass jug using to which 1-vial of White Labs Edinburgh Ale yeast was added. The airlock was applied and the entire vessel was placed in a dark room at room temperature for 48 hours. […] (1) glass jugs, airlocks and funnel were thoroughly cleaned and then rinsed with beer sanitizer; (2) 1000 mLs of water was boiled then 100 grams of DME was added; (3) sample was boiled for 10 minutes; (4) sample was removed from heat; and (5) solution was allowed to cool to 72° F. The Treatment Starter batch was then placed in a sanitized 64 ounce glass jug using to which 1-vial of White Labs Edinburgh Ale yeast was added. The airlock was applied and the entire vessel was placed in a dark room at room temperature for 48 hours. […] Materials to prepare the mash included the following: 18 lb of American 2-Row base grain; 3 lb of Crystal Malt 40 L specialty grain; 1 lb […] specialty grain; and water. A mash tun (a vessel used in the mashing process to convert the starches in crushed grains into sugars for fermentation) and Brew kettle were cleaned with powdered brewers wash and rinsed thoroughly. The mash tun was then sanitized (San Star Brewing Sanitizer). The following grains were crushed and milled for mashing: 18 lb of American 2-Row base grain; 3 lb of Crystal Malt 40 L specialty grain; and 1 lb […] specialty grain. […] The crushed grains were then added and the solution was mixed thoroughly. The lid was attached and the solution allowed to mash for 60 minutes. […] Strike water was preheated to 168° F., added to the mash tun and mix thoroughly with grain. The mixture was allowed to incubate for 10 minutes. […] After preparing the mash, the brewing process was started. […] Equipment was cleaned thoroughly with PBW. The wort chiller and filtered air stone were sanitized with brewing sanitizer (San Star Brewing Sanitizer). […] At 30 minutes of boil, a second aliquot (0.5 ounces) of Cascade hops was added. At 40 minutes of boil, third aliquot (0.5 ounces) of Cascade hops was added as well as 2 teaspoons of […] Moss. At 50 minutes of boil, a fourth aliquot (0.5 ounces) of Cascade hops was added. […] Each fermentor was Brix tested every 24 hours for 21 days. Both fermentors were aerated for 25 minutes with sanitized filtered air stone. MSM infused yeast was pitched into treatment fermentor vessel while unaltered yeast was pitched into control fermentor vessel. Blow-off tubes were attached to both fermentors and fermentation was allowed to proceed for 21 days.
structure (smiles),measurement,setting,value
"CS(C)(=O)=O [MSM, Methylsulfonylmethane]",AET test results (microorganism count),Escherichia coli; 1:100 dilution of MSM in TSB,TNTC
same,AET test results (microorganism count),Escherichia coli; 1:1000 dilution of MSM in TSB,TNTC
same,AET test results (microorganism count),Pseudomonas aeruginosa; 1:100 dilution of MSM in TSB,TNTC
same,AET test results (microorganism count),Pseudomonas aeruginosa; 1:1000 dilution of MSM in TSB,TNTC
same,Growth (colony forming units),Lactobacillus rhamnosus; 0 hours of incubation,1.7 × 10^6 cfu/mL
same,Growth (colony forming units),Lactobacillus rhamnosus; 12 hours of incubation,2.1 × 10^7 cfu/mL
same,Growth (colony forming units),Lactobacillus rhamnosus; 24 hours of incubation,1.5 × 10^9 cfu/mL
same,Growth (colony forming units),Lactobacillus rhamnosus; 36 hours of incubation,1.8 × 10^9 cfu/mL
same,Growth (colony forming units),Lactobacillus rhamnosus; 48 hours of incubation,2.1 × 10^9 cfu/mL
same,Growth (colony forming units),Lactobacillus rhamnosus; 60 hours of incubation,2.6 × 10^9 cfu/mL
same,recovery higher than the 0% control,"Lactobacillus rhamnosus; 0.2% MSM, first 12 hours",41%
same,recovery higher than the 0% control,"Lactobacillus rhamnosus; 1% MSM, first 12 hours",47%
same,recovery more than the 0% control,"Lactobacillus rhamnosus; all MSM samples, first 12 hours",at least 12%
same,log increase of Bifidobacterium,Bifidobacterium bifidum; 0.04% MSM,One
same,log higher than the 0% MSM control,"Bifidobacterium bifidum; 0.04% and 0.2% MSM samples, 48 hours",1 log
same,log increase of Bifidobacterium,Bifidobacterium bifidum; 0.2% MSM,2 log
same,F.G. (Adjusted for Alc and Temp),[1]; Day 1,1.026
same,F.G. (Adjusted for Alc and Temp),[1]; Day 2,1.018
same,F.G. (Adjusted for Alc and Temp),[1]; Day 3,1.016
same,F.G. (Adjusted for Alc and Temp),[1]; Day 4,1.016
same,F.G. (Adjusted for Alc and Temp),[1]; Day 5,1.015
same,F.G. (Adjusted for Alc and Temp),[1]; Day 6,1.015
same,F.G. (Adjusted for Alc and Temp),[1]; Day 7,1.015
same,F.G. (Adjusted for Alc and Temp),[1]; Day 8,1.015
same,F.G. (Adjusted for Alc and Temp),[1]; Day 9,1.015
same,F.G. (Adjusted for Alc and Temp),[1]; Day 10,1.015
same,F.G. (Adjusted for Alc and Temp),[1]; Day 11,1.015
same,F.G. (Adjusted for Alc and Temp),[1]; Day 12,1.015
same,F.G. (Adjusted for Alc and Temp),[1]; Day 13,1.015
same,F.G. (Adjusted for Alc and Temp),[1]; Day 14,1.015
same,F.G. (Adjusted for Alc and Temp),[1]; Day 15,1.015
same,F.G. (Adjusted for Alc and Temp),[1]; Day 16,1.015
same,F.G. (Adjusted for Alc and Temp),[1]; Day 17,1.015
same,F.G. (Adjusted for Alc and Temp),[1]; Day 18,1.015
same,F.G. (Adjusted for Alc and Temp),[1]; Day 19,1.015
same,F.G. (Adjusted for Alc and Temp),[1]; Day 20,1.015
same,F.G. (Adjusted for Alc and Temp),[1]; Day 21,1.015
same,time to maximum fermentation,[1]; 0.5% MSM treatment batch,5 days
same,sooner time of completion,[1]; 0.5% MSM treatment batch vs control (6 days),17-25%
same,time to activity,[1]; fermentor with 0.5% MSM,3.5 h
same,activity sooner than the control,[1]; fermentor with 0.5% MSM (3.5 hours compared to 9 hours),58%
same,activity sooner than the control,[1]; yeast starter with 0.5% MSM (2 hours compared to 10 hours),80%
